Measured values from patent publication US20240287054A1, “COMPOUNDS THAT BIND NON-CANONICAL G-QUADRUPLEX STRUCTURES AND METHODS OF MAKING AND USING THE SAME” (The U.S.A., as Represented by the Secretary, Department of …, priority 2021, published 2024).

Experiments:
MYCN hairpin-G4 DNA = test: FIA using compound fluorescence (Ex 340/Em 500 nm), titration with unlabeled MYCN G4 DNA; format: binding, human; conditions: 100 nM compound titrated with folded unlabeled MYCN G4
Description: (§1) In this study, FIA was used for validating the bindings between certain bivalent and MYCN G4 oligos. To measure the binding affinity, a solution of each compound was prepared in triplicate in a 96 well-plate (Costar, black side clear bottom), resulting in a final concentration of 100 nM (5% final DMSO in the working solution). Unlabeled MYCN G4 DNA was folded based on the above-mentioned annealing method, then added into the well plate resulting in different concentrations by a seral dilution. The plate was incubated at room temperature for 30 min, followed by centrifuging at 500 rpm for 2 minutes. The fluorescence intensity was then quantitatively recorded by a Synergy Mx microplate reader (BioTek) at Ex 340 nm/Em 500 nm. The fluorescence intensities were then normalized, and the binding affinity was calculated by fitting the curve using one-site total model in GraphPad Prism 8.3.1 software.

[1] = tested on: ~19,000 different G4 sequences, G4 and non-G4 controls; test: High-density DNA oligo microarray (~19,000 G4 sequences) selectivity profiling; format: binding; conditions: 500 nM compound
Description: To further characterize the binding selectivity of compound B33, high-density and large-scale DNA microarrays that contained ˜19,000 different G4 sequences were fabricated and used. In this microarray, 340 reported G4s (G-rich sequences) as well as 280 non-G4s (C-rich sequences) were designed as positive and negative controls. Additionally, over 17,000 canonical G4 oligos with short loops (1˜7 nt) were also designed and synthesized by varying the loop sequences to meet the diversity of G4 structure. After folding the surface-grafted DNA oligos in high concentration of KCl buffer, TO and compound B33 solutions (500 nM) were incubated with the microarray, respectively. Then the slides were thoroughly washed, dried, and imaged by a fluorescent scanner using green channel. […] By quantifying the fluorescence intensity of each spot, the bindings of TO and compound B33 were further investigated. The kernel density estimate (KDE) plot and violin plot represented the distribution of the binding signals throughout the whole microarray. […] Compound B33 spectrum spanned a much wider range than that of TO. In the violin plot (FIG. 37C), the mean SNR value of TO group was 12, much higher than that of the compound B33 group. […] Furthermore, the selectivity of the two compounds were quantitatively profiled by using Gini coefficient. Gini coefficient, initially used as an economic concept, has been applied in profiling the selectivity/promiscuity of kinase inhibitors as well as RNA binders. A higher Gini value represents a better selectivity of a compound (Gini coefficient>0.75 is considered an excellent selectivity). The Gini coefficient based on the SNRs in the microarray.

MANGO II RNA G4 = test: SPR binding to MANGO II RNA G4; conditions: duplex-containing RNA G4
BCL2 HP-G4 = test: FIA binding test with BCL2 HP-G4 (parallel structure)
Description: as §1
(§2) In addition to the DMS-footprinting study, the bivalent binding mode of compound B33 toward MYCN hairpin-G4 was also investigated by comparing HP-G4s with different folding types. Four reported HP-G4s with parallel structure (BCL2), (3+1) hybrid structure (HIV and PIM1-form1), and (2+2) chair-type structure (PIM1-form2) were examined by FIA binding test using compound B33 (FIGS. 41A, 41B, 42A, 42B, 43A, 43B, 44A, and 44B). […]

HIV HP-G4 = test: FIA binding test with HIV HP-G4 ((3+1) hybrid structure)
Description: as §1, §2

PIM1-form1 HP-G4 = test: FIA binding test with PIM1-form1 HP-G4 ((3+1) hybrid structure)
Description: as §1, §2

PIM1-form2 HP-G4 = test: FIA binding test with PIM1-form2 HP-G4 ((2+2) chair-type structure); conditions: read-out: binding affinity, PIM1-form2 HP-G4
Description: as §1, §2

[2] = biological target: five 5′Cy5-labeled G4s from cancer-relevant genes (BCL2, KRAS, mTOR, NRAS, telomeric DNA); test: FIA selectivity profiling with five other 5′Cy5-labeled G4s; format: binding; conditions: five 5′Cy5-labeled G4s other than MYCN
MYCN G4 DNA [3] = test: Microscale thermophoresis (MST) with 3′-Cy5 MYCN G4 DNA; design: species or system human; conditions: 3′-Cy5 labeled MYCN G4, 1:1 binding model; read-out: binding affinity by MST
Description: Microscale thermophoresis (MST). MST experiments were carried out on a Monolith NT.115 system (NanoTemper Technologies). The 3′-Cy5 MYCN G4 DNA solutions were prepared in 10 mM Tris (pH 7.5), 100 mM KCl, 0.005% T20, annealed (according to the above-mentioned method), and diluted to 100 nM (2×). The DMSO solutions of small molecules were prepared in the buffer with a series 1:1 dilution, resulting in 2× of designed concentrations (10% DMSO). Then, DNA samples were 1:1 (v/v) mixed with corresponding small molecule solutions, resulting in 50 nM DNA and 5% DMSO. Finally, MST signals were detected in triplicate capillaries, and the dissociation constant was determined by fitting the curve using a single-site model (MO.Affinity Analysis v2.3).

[4] = tested on: MYCN G4 DNA (hairpin minor groove); test: Fluorescence displacement assay with Hoechst 33258; format: binding, human
Description: Fluorescence displacement assay. Fluorescence displacement assays were carried out by using two classical minor groove binders (Hoechst 33258 and netropsin). Hoechst 33258, as a fluorophore, was prepared at 5 μM concentration in the buffer (10 mM Tris, pH7.0, 100 mM KCl), and then titrated with different concentrations of unlabeled MYCN G4 oligonucleotides. For displacement, either compound MY-1 or netropsin was added into the solution resulting in a final concentration of 5 μM or 50 μM. Fluorescence signals were obtained with an excitation wavelength of 352 nm and an emission wavelength of 500 nm.

MYCN G4 DNA [5] = test: SPR competitive binding assay on MYCN G4; design: species or system human
Description: Based on this unexpected observation, and without being bound to a single theory, it currently is believed that the two compounds might bind to MYCN G4 on different sites. To investigate, a competitive assay on SPR was performed by injecting the compounds step-wise in a designated order or injecting a mixture (Brooks et al., Drug Discovery Today 2014, 19:1040-1044; Spurny et al., PNAS 112:E2543-2552). […] Next, TMPyP4, a classical stacking G4-binder (Seenisamy, JACS 2004, 126:8702-8709), was also tested together with MY-1. […] In addition, a CD melting assay was also performed using either MY-1 or a mixture of two hits (1 and MY-1).

Row | SMILES | Kd (MYCN hairpin-G4 DNA) [µM] | binding to the 620 G4 and non-G4 controls ([1]; 340 G4s and 280 non-G4s) | Gini coefficient ([1]; based on SNRs in the microarray) | binding to MANGO II RNA G4 by SPR (MANGO II RNA G4) | fold weaker than MYCN HP-G4 (BCL2 HP-G4; BCL2 HP-G4 vs MYCN HP-G4) [times] | Kd (BCL2 HP-G4; FIA) [µM] | Kd (HIV HP-G4) [µM] | Kd (PIM1-form1 HP-G4) [µM] | Kd (PIM1-form2 HP-G4) [µM] | binding affinities (KD) to other G4s [2] | Kd (MYCN G4 DNA [3]) [µM] | displacement of Hoechst 33258 at 5 μM ([4]; 5 μM competitor) | displacement of Hoechst 33258 at 50 μM ([4]; 50 μM competitor) | binding level of MY-1 after injection of 1 (MYCN G4 DNA [5]; 100 μM of 1 followed by 100 μM of MY-1, also 500 μM of 1) | SPR binding signal on addition of MY-1 to TMPyP4 solution (MYCN G4 DNA [5]; MY-1 100 μM and 250 μM in TMPyP4 solution)
1 | COc1ccc(-c2noc(-c3ccc(NCCCNc4c5ccc(Cl)cc5nc5ccc(OC)cc45)nn3)n2)cc1 [B33, N^1-(6-chloro-2-methoxyacridin-9-yl)-N^3-(6-(3-(4-methoxyphenyl)-1,2,4-oxadiazol-5-yl)pyridazin-3-yl)propane-1,3-diamine] | 0.066 ± 0.007 | some binding to G4s while there was no binding observed in non-G4 group | 0.628 | weak binding | ~4 | 0.258 ± 0.039 | 0.151 ± 0.026 | 0.279 ± 0.032 | 1.1 ± 0.4 | – | – | – | – | – | –
2 | COc1ccc(-c2noc(-c3ccc(NCCCN4CCCC4)nn3)n2)cc1 [MY-1, 6-(3-(4-methoxyphenyl)-1,2,4-oxadiazol-5-yl)-N-(3-(pyrrolidin-1-yl)propyl)pyridazin-3-amine] | – | – | – | – | – | – | – | – | – | no significant quenching behavior | 8.1 ± 1.7 | no measurable change | partial fluorescence decrease | not significantly changed | increase of SPR binding signals
